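Five compound concentrations were applied to cells in 96-well plates for 48 hours; endpoints were derived by simple linear interpolation of the resulting dose-response curve. TGI denotes the concentration required for complete inhibition of growth.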
Assays:
Assay in all cases: NCI-60 cell line screen, 48 h
KM12 colon = system: KM12 colon
PC-3 prostate = system: PC-3 prostate
A549 NSCLC = system: A549 NSCLC
DLD-1 colon = system: DLD-1 colon
HCT-116 colon = system: HCT-116 colon
MALME-3M melanoma = system: MALME-3M melanoma
OVCAR-4 ovarian = system: OVCAR-4 ovarian
TK-10 renal = system: TK-10 renal
NCI/ADR-RES ovarian = system: NCI/ADR-RES ovarian
MCF7 breast = system: MCF7 breast
UACC-257 melanoma = system: UACC-257 melanoma
SF-268 CNS = system: SF-268 CNS
OVCAR-8 ovarian = system: OVCAR-8 ovarian
SK-OV-3 ovarian = system: SK-OV-3 ovarian
MDA-MB-231 breast = system: MDA-MB-231 breast
T-47D breast = system: T-47D breast
HL-60(TB) leukemia = system: HL-60(TB) leukemia
OVCAR-3 ovarian = system: OVCAR-3 ovarian
HCC-2998 colon = system: HCC-2998 colon
RXF 393 renal = system: RXF 393 renal

Structure (SMILES) | TGI (KM12 colon) | TGI (PC-3 prostate) | TGI (A549 NSCLC) | TGI (DLD-1 colon) | TGI (HCT-116 colon) | TGI (MALME-3M melanoma) | TGI (OVCAR-4 ovarian) | TGI (TK-10 renal) | TGI (NCI/ADR-RES ovarian) | TGI (MCF7 breast) | TGI (UACC-257 melanoma) | TGI (SF-268 CNS) | TGI (OVCAR-8 ovarian) | TGI (SK-OV-3 ovarian) | TGI (MDA-MB-231 breast) | TGI (T-47D breast) | TGI (HL-60(TB) leukemia) | TGI (OVCAR-3 ovarian) | TGI (HCC-2998 colon) | TGI (RXF 393 renal)
Cc1ccc(C(=O)Oc2ccccc2)cc1N=NN(C)C | > 100 µM | > 100 µM | > 100 µM | > 100 µM | > 100 µM | > 100 µM | > 100 µM | > 100 µM | > 100 µM | > 100 µM | > 100 µM | > 100 µM | > 100 µM | > 100 µM | > 100 µM | > 100 µM | > 100 µM | > 100 µM | > 100 µM | 
COc1cc([C@@H]2c3cc4c(cc3[C@@H](NCc3cccc(C#N)c3)C3COC(=O)[C@@H]32)OCO4)cc(OC)c1O (some centres undefined) | 4.66 µM |  | 1.91 µM | 12.7 µM | 21.4 µM | 9.58 µM | > 100 µM | 6.84 µM |  |  | > 100 µM | > 100 µM | 4.56 µM | 4.12 µM |  |  | 1.51 µM | 8.47 µM | 4.51 µM | 19.6 µM
C=C1C2=C(CCCC2)C(=O)OC12CCCCC2 | > 100 µM |  | > 100 µM | > 100 µM | > 100 µM | > 100 µM | > 100 µM | > 100 µM |  |  | > 100 µM | > 100 µM | > 100 µM | > 100 µM |  |  | > 100 µM | > 100 µM | > 100 µM | > 100 µM
CCCCCCCCC(O)c1ccc(/C=C\C(O)CCCC(=O)O)s1 (centres undefined) | > 100 µM |  | > 100 µM | > 100 µM | > 100 µM | > 100 µM | > 100 µM | > 100 µM |  |  | > 100 µM | > 100 µM | > 100 µM | > 100 µM |  |  | > 100 µM | > 100 µM | > 100 µM | > 100 µM
COc1ccc2[nH]c3c(c2c1)[C@H]1CCC(C(C)(C)C)C[C@H]1[C@H]1C(=O)N(c2ccccc2)C(=O)[C@@H]31 (some centres undefined) | > 100 µM |  | > 75.8 µM | > 96.2 µM | > 100 µM | 40.4 µM | 14.4 µM | > 74.1 µM |  |  | > 80.6 µM | > 48.2 µM | 28.1 µM | 44.9 µM |  |  | > 100 µM | > 58.9 µM | > 100 µM | 26.5 µM
CCCCOC/N=C(/N)NC#N | > 100 µM |  | > 100 µM | > 100 µM | > 100 µM | > 100 µM | > 100 µM | > 100 µM |  |  | > 100 µM | > 100 µM | > 100 µM | > 100 µM |  |  | > 100 µM | > 100 µM | > 100 µM | > 100 µM
